Experimental data taken from US20140329863A1 (priority 2011, published 2014).
Where two headings read alike, the source gives them in different places.

Legend:
PrP^C in T98G cells = format: cell-based, human; conditions: read-out: EC50 (μM) ELISA potency, PrP^C in T98G cells
[1] = Hepatic microsomal stability, mouse; conditions: mouse liver microsomes; for Hepatic Extraction Ratio Mouse: predicted hepatic extraction; for half-life at 1 μM: mouse, pH 7.4
[2] = Hepatic microsomal stability, human; conditions: human liver microsomes; for Hepatic Extraction Ratio Human: predicted hepatic extraction; for half-life at 1 μM: human, pH 7.4
[3] = tested on: PrP^Sc in dividing ScN2a-cl3 cells; format: cell-based, mouse; parameters: Dividing ELISA pEC50 (μM) 1st Expt. / Dividing ELISA pEC50 (μM) 2nd Expt. / Dividing ELISA pEC50 (μM) 3rd Expt. / Dividing ELISA pEC50 (μM) Mean: unit not given here; conditions: for Inhibition of Baseline PrP^5c (%) Dividing Cells ELISA: SPC assay
[4] = tested on: PrP^Sc in nondividing ScN2a-cl3 cells; format: cell-based, mouse; conditions: for Inhibition of Baseline PrP^5c (%) Non-dividing Cells ELISA: SPC assay, nondividing cells; for EC50: read-out: Non-Dividing ELISA EC50 (μM) Mean (n = 3), ScN2a-c13 non-dividing cells, mean n = 3
N2a-cl3 cells [5] = tested on: N2a-cl3 cells
[6] = tested on: PrP^Sc in ScN2a-cl3 cells; format: cell-based, mouse; conditions: Western immunoblots
N2a-cl3 cells [7] = assay: cells; conditions: Mus musculus, N2a-cl3, read-out: Dividing Calcein EC50 (μM) Mean (n = 3)
[8] = read-out: Dividing ELISA EC50 (μM) 1st Expt., ScN2a-cl3 dividing cells, 1st determination
[9] = read-out: Dividing ELISA EC50 (μM) 2nd Expt., ScN2a-cl3 dividing cells, 2nd determination
[10] = read-out: Dividing ELISA EC50 (μM) 3rd Expt., ScN2a-cl3 dividing cells, 3rd determination
[11] = read-out: Dividing ELISA EC50 (μM) Mean, ScN2a-cl3 dividing cells, mean of three determinations
[12] = ScN2a-cl3 dividing cells, 1st determination
[13] = ScN2a-cl3 dividing cells, 2nd determination
[14] = ScN2a-cl3 dividing cells, 3rd determination
[15] = ScN2a-cl3 dividing cells, mean of three determinations

## CCN(CC)c1ccc2c(c1)OC(N)=C(C#N)C2c1ccccc1 (centres unmarked) [IND126322]
PrP^C in T98G cells
  EC50: 0.174 µM

## CCOc1ccc(Nc2nc(-c3c(C)nc4sccn34)cs2)cc1 [IND126328]
PrP^C in T98G cells
  EC50: 0.065 µM
[1]
  Hepatic Extraction Ratio Mouse: 0.86
  half-life at 1 μM: 9.64 min
[2]
  Hepatic Extraction Ratio Human: 0.76
  half-life at 1 μM: 21.9 min

## COc1ccc(Cl)cc1NS(=O)(=O)c1ccc(N2CCCC2=O)cc1 [IND126331]
PrP^C in T98G cells
  EC50: 0.684 µM

## COc1cccc(N2CCN(C(=O)c3cc(C)ccc3OC)CC2)c1 [IND126339]
PrP^C in T98G cells
  EC50: 0.248 µM
[1]
  Hepatic Extraction Ratio Mouse: 0.95
  half-life at 1 μM: 3.2 min
[2]
  Hepatic Extraction Ratio Human: 0.87
  half-life at 1 μM: 10.3 min

## CCOC(=O)c1[nH]c2c(c1C)C(=O)CC(c1ccccc1Cl)C2 (centres unmarked) [IND126429]
PrP^C in T98G cells
  EC50: 0.497 µM

## CCOC(=O)c1[nH]c2c(c1C)C(=O)CC(c1ccccc1)C2 (centres unmarked) [IND126432]
PrP^C in T98G cells
  EC50: 0.144 µM

## COc1ccc(CN2CCN(c3ccc(C(C)=O)cc3)CC2)c(C)c1C [IND-17848]
[3]
  Inhibition of Baseline PrP^5c (%) Dividing Cells ELISA: 95%
[4]
  Inhibition of Baseline PrP^5c (%) Non-dividing Cells ELISA: 41%
N2a-cl3 cells [5]
  Dividing Cells V (cell viability percentages): 1%
  Non-dividing Cells V (cell viability percentages): 24%

## CC(=O)c1ccc(N2CCN(CC(C)CCC=C(C)C)CC2)cc1 (centres unmarked) [IND-18721]
[3]
  Inhibition of Baseline PrP^5c (%) Dividing Cells ELISA: 78%
[4]
  Inhibition of Baseline PrP^5c (%) Non-dividing Cells ELISA: 55%
N2a-cl3 cells [5]
  Non-dividing Cells V (cell viability percentages): 10%

## CC(=O)c1ccc(N2CCN(Cc3ccc(F)cc3F)CC2)cc1 [IND-18785]
[3]
  Inhibition of Baseline PrP^5c (%) Dividing Cells ELISA: 85%
[4]
  Inhibition of Baseline PrP^5c (%) Non-dividing Cells ELISA: 30%
N2a-cl3 cells [5]
  Dividing Cells V (cell viability percentages): 30%
  Non-dividing Cells V (cell viability percentages): 20%

## CC(=O)c1ccc(N2CCN(Cc3ccccc3Cl)CC2)cc1 [IND-19130]
[3]
  Inhibition of Baseline PrP^5c (%) Dividing Cells ELISA: 86%
[4]
  Inhibition of Baseline PrP^5c (%) Non-dividing Cells ELISA: 41%
N2a-cl3 cells [5]
  Dividing Cells V (cell viability percentages): 5%
  Non-dividing Cells V (cell viability percentages): 2%

## O=C(Nc1ccc(Cl)cc1)Nc1ccc(Cl)c(F)c1 [IND-19237]
[3]
  Inhibition of Baseline PrP^5c (%) Dividing Cells ELISA: 25%
[4]
  Inhibition of Baseline PrP^5c (%) Non-dividing Cells ELISA: 66%
N2a-cl3 cells [5]
  Dividing Cells V (cell viability percentages): 2%
  Non-dividing Cells V (cell viability percentages): 26%

## O=C(Nc1ccc(Cl)cc1)Nc1ccc(C(F)(F)F)cc1Cl [IND-19238]
[3]
  Inhibition of Baseline PrP^5c (%) Dividing Cells ELISA: 17%
[4]
  Inhibition of Baseline PrP^5c (%) Non-dividing Cells ELISA: 63%
N2a-cl3 cells [5]
  Non-dividing Cells V (cell viability percentages): 9%

## Clc1ccc(N2CCN(C3CCSC3)CC2)cc1 (centres unmarked) [IND-19847]
[3]
  Inhibition of Baseline PrP^5c (%) Dividing Cells ELISA: 42%
[4]
  Inhibition of Baseline PrP^5c (%) Non-dividing Cells ELISA: 51%
N2a-cl3 cells [5]
  Non-dividing Cells V (cell viability percentages): 3%

## OCCNCc1cc(Br)ccc1OCc1ccc(Cl)cc1Cl [IND-0033452]
[3]; dividing ScN2a-cl3 cells, read-out: EC50 (nM): ELISA
  EC50: 2850 nM
[3]; read-out: Potency (nM) ELISA (EC50), PrP^Sc ELISA, dividing ScN2a-cl3 cells
  EC50: 2850 nM
[6]; ScN2a-cl3 cells, read-out: EC50 (nM): Western
  EC50: 1990 nM
[6]; read-out: Potency (nM) Western (EC50), dividing ScN2a-cl3 cells
  EC50: 1990 nM
N2a-cl3 cells [5]
  Calcein: MW: 405.1 EC50 (nM): ELISA: 2850 Calcein: 27% Western: 1993
N2a-cl3 cells [5]; mouse
  Calcein (value printed in %): 27%

## COc1ccc(-c2csc(Nc3ccc(C)cn3)n2)cc1OC [compound 14, [4-(3,4-dimethoxyphenyl)-thiazol-2-yl]-(5-methylpyridin-2-yl)-amine]
[3]; [8]
  EC50: 974 nM
[3]; [9]
  EC50: 577 nM
[3]; [10]
  EC50: 815 nM
[3]; [11]
  EC50: 789 nM
[4]
  EC50: > 32 µM
N2a-cl3 cells [7]
  EC50: > 32 µM

## c1ccc2cc(Nc3nc(-c4ccncc4)cs3)ncc2c1 [compound 32]
[3]; [12]
  Dividing ELISA pEC50 (μM) 1st Expt.: 6.58
[3]; ScN2a-cl3 dividing cells, 1st determination, read-out: Dividing ELISA EC50 (μM) 1st Expt.
  EC50: 261 nM
[3]; [13]
  Dividing ELISA pEC50 (μM) 2nd Expt.: 6.56
[3]; ScN2a-cl3 dividing cells, 2nd determination, read-out: Dividing ELISA EC50 (μM) 2nd Expt.
  EC50: 277 nM
[3]; [14]
  Dividing ELISA pEC50 (μM) 3rd Expt.: 6.42
[3]; ScN2a-cl3 dividing cells, 3rd determination, read-out: Dividing ELISA EC50 (μM) 3rd Expt.
  EC50: 383 nM
[3]; [15]
  Dividing ELISA pEC50 (μM) Mean: 6.52
[3]; ScN2a-cl3 dividing cells, mean of three determinations, read-out: Dividing ELISA EC50 (μM) Mean
  EC50: 307 nM
[4]
  EC50: > 32 µM
N2a-cl3 cells [5]; read-out: Dividing Calcein EC50 (μM) Mean (n = 3)
  EC50: > 32 µM

## c1ccc(-c2cc(-c3csc(Nc4cc5ccccc5cn4)n3)on2)cc1 [compound 35, Isoquinolin-3-yl-[4-(3-phenylisoxazol-5-yl)-thiazol-2-yl]-amine]
[3]; [12]
  Dividing ELISA pEC50 (μM) 1st Expt.: 5.93
[3]; [13]
  Dividing ELISA pEC50 (μM) 2nd Expt.: 6.24
[3]; [14]
  Dividing ELISA pEC50 (μM) 3rd Expt.: 6.18
[3]; [15]
  Dividing ELISA pEC50 (μM) Mean: 6.12
[3]; [8]
  EC50: 1160 nM
[3]; [9]
  EC50: 573 nM
[3]; [10]
  EC50: 663 nM
[3]; [11]
  EC50: 799 nM
[4]
  EC50: > 32 µM
N2a-cl3 cells [7]
  EC50: > 32 µM

## Cc1ccc(Nc2nc3c(s2)Cc2ccccc2-3)nc1 [compound 38, (8H-Indeno[1,2-d]thiazol-2-yl)-(5-methylpyridin-2-yl)-amine]
[3]; [12]
  Dividing ELISA pEC50 (μM) 1st Expt.: 5.70
[3]; [13]
  Dividing ELISA pEC50 (μM) 2nd Expt.: 5.52
[3]; [14]
  Dividing ELISA pEC50 (μM) 3rd Expt.: 5.63
[3]; [15]
  Dividing ELISA pEC50 (μM) Mean: 5.62
[3]; [8]
  EC50: 1990 nM
[3]; [9]
  EC50: 2990 nM
[3]; [10]
  EC50: 2340 nM
[3]; [11]
  EC50: 2440 nM
[4]
  EC50: > 32 µM
N2a-cl3 cells [7]
  EC50: > 32 µM

## COc1cc2c(cc1OC)-c1nc(Nc3ccc(C)cn3)sc1C2 [compound 39, (5,6-Dimethoxy-8H-indeno-[1,2-d]thiazol-2-yl)-(5-methylpyridin-2-yl)-amine]
[3]; [12]
  Dividing ELISA pEC50 (μM) 1st Expt.: 5.46
[3]; [13]
  Dividing ELISA pEC50 (μM) 2nd Expt.: 5.23
[3]; [14]
  Dividing ELISA pEC50 (μM) 3rd Expt.: 5.13
[3]; [15]
  Dividing ELISA pEC50 (μM) Mean: 5.27
[3]; [8]
  EC50: 3450 nM
[3]; [9]
  EC50: 5930 nM
[3]; [10]
  EC50: 7380 nM
[3]; [11]
  EC50: 5590 nM
[4]
  EC50: > 32 µM
N2a-cl3 cells [7]
  EC50: > 32 µM

## Cc1ccnc(Nc2nc(-c3cc(-c4ccccc4)no3)cs2)c1 [compound 43, (4-Methylpyridin-2-yl)-[4-(3-phenylisoxazol-5-yl)-thiazol-2-yl]-amine]
[3]; [12]
  Dividing ELISA pEC50 (μM) 1st Expt.: 5.98
[3]; [13]
  Dividing ELISA pEC50 (μM) 2nd Expt.: 5.96
[3]; [14]
  Dividing ELISA pEC50 (μM) 3rd Expt.: 5.78
[3]; [15]
  Dividing ELISA pEC50 (μM) Mean: 5.90
[3]; [8]
  EC50: 1050 nM
[3]; [9]
  EC50: 1100 nM
[3]; [10]
  EC50: 1670 nM
[3]; [11]
  EC50: 1280 nM
[4]
  EC50: > 32 µM
N2a-cl3 cells [7]
  EC50: > 32 µM
